Tests used:
[1] = system: chronic constriction injury (CCl) of the sciatic nerve; test: Thermal hyperalgesia test (paw withdrawal latency) after chronic constriction injury; type: in vivo, rat; conditions: for mean paw withdrawal latency over baseline: Example 1, FIG. 2; for increase in paw withdrawal latency over baseline: 0.1 mg/kg
Procedure: (§1) The behavioral animal model of chronic constriction injury (“CCl”) was chosen to evaluate the efficacy of NFκB inhibitors as a pain treatment. This model may mimic pain associated with sciatica in humans. To induce CCl, each animal was anesthetized by intraperitoneal (“i.p.”) injection of sodium pentobarbital at a dose of 60 mg/kg body weight. The animal's right common sciatic nerve was exposed and freed from adherent tissue at mid-thigh by separating the muscle (biceps femoris) by blunt dissection. Four loose ligatures were placed 1 mm apart, using chromic gut (4-0 absorbable suture, Jorgensen Laboratories Inc., Loveland, Colo.).
Animal behavioral testing was conducted on Days 7, 14 and 21 after CCl. In the thermal hyperalgesia test, animals were placed in the clear plastic chamber of a plantar analgesia instrument and allowed to acclimate to the environment for 15 minutes. After the acclimation period, a radiant (heat) beam source stimulus was applied to the CCl hind paw of each animal. The heat source device was set at an intensity of 50, and a maximum latency period of 15 seconds was set to prevent tissue damage according to the recommendations of the instrument manufacturer. If a paw withdrawal occurred within the 15 second period, an automated control interrupted both the stimulus and timer, turning off the radiant beam and recording the latency of time to paw withdrawal. Data was analyzed using a one-way analysis of variance at each test day.
Specifically, the same methods as described above were used except that sulfasalazine was administered at doses of 5 mg/kg; 1 mg/kg or 0.2 mg/kg.
Following the previous experiment, the effect of local doses of clonidine on pain sensitivity was explored. Animals were administered vehicle or test substances through a subcutaneously implanted Alzet pump. Again, the previously described methods for CCl and paw withdrawal latency measurements were followed except that in the presently described experiment animals received either vehicle control; 1 μg/hour Enbrel® as a positive control; 0.01 μg/hour clonidine; 0.05 μg/hour clonidine; or 0.25 μg/hour clonidine.

[2] = system: chronic constriction injury (CCl) of the sciatic nerve; test: Mechanical (tactile) allodynia, von Frey filaments, after chronic constriction injury; type: in vivo, rat; conditions: for pain sensitivity in the mechanical allodynia test, in words / decrease in pain sensitivity, mechanical allodynia test: Example 4, FIG. 5B; for sensitivity in mechanical allodynia paradigm compared to controls: Example 3, FIG. 4, Days 8, 15 and 22 following CCl
Procedure: as §1
The ability of sulfasalazine to inhibit pain was also evaluated using a different sensitivity measure following CCl, namely mechanical (or tactile) allodynia. In this study, mechanical allodynia was determined in reaction to probing with von Frey filaments (Stoelting, Wood Dale, Ill.). Mechanical sensitivity was measured on Days 8, 15 and 22 following CCl by determining the median 50% foot withdrawal threshold for von Frey filaments using the up-down method described in Chaplan et al. (J Neurosci Methods 1994; 54:55) which is incorporated by reference herein for its teachings regarding the up-down method. Rats were placed under a plastic cover (9×9×20 cm) on a metal mesh floor. The area tested was the middle glabrous area between the footpads of the plantar surface of the injured hind paw within the L4 innervation area. The plantar area was touched with a series of 9 von Frey hairs with approximately exponentially incremental bending forces (von Frey values: 3.61, 3.8, 4.0, 4.2, 4.41, 4.6, 4.8, 5.0, and 5.2; equivalent to: 0.41, 0.63, 1.0, 1.58, 2.51, 4.07, 6.31, 10, and 15.8 g). The von Frey hair was presented perpendicular to the plantar surface with sufficient force to cause slight bending and held for approximately 3 to 4 seconds. Abrupt withdrawal of the foot (paw flinching) was recorded as a response. Any rat showing a mechanical threshold of more than 3.24 g was eliminated from the study.

[3] = rat, in vivo, 100 mg/kg
[4] = system: Complete Freund's Adjuvant (CFA) inflammatory pain model; conditions: spinal administration; cited from earlier work

With `S=C(S)N1CCCC1` [PDTC, pyrollidinedithiocarbamate] the “paw withdrawal latencies versus control levels” value ([1]; Example 4, FIG. 5A, 20 mg/kg or 100 mg/kg, not as effective as other NFκB inhibiting compounds) was “did increase paw withdrawal latencies over control levels”, the “pain sensitivity in the mechanical allodynia test, in words” value ([2]; compared to animals receiving vehicle or Enbrel) was “showed some effect in decreasing pain sensitivity” and the drug toxicity [3] was “removed from the study following the second day of testing due to drug toxicity”. The mechanical allodynia [4] was “significantly reduce” and the thermal hyperalgesia [4] was “significantly reduce”.
In the case of `CC1=C(CC(=O)O)c2cc(F)ccc2/C1=C\c1ccc([S+](C)[O-])cc1` (centres unmarked) [sulindac], the “paw withdrawal latency over baseline” value ([1]; Example 4, FIG. 5A, 2 mg/kg, all three test days) is reported as “about 65%”, the “paw withdrawal latency over baseline” value ([1]; Example 4, FIG. 5A, 10 mg/kg, test day 7) is reported as “about 65%” and the “paw withdrawal latency over baseline” value ([1]; Example 4, FIG. 5A, 10 mg/kg, test day 21) is reported as “about 75%”. For the same compound, the “paw withdrawal latency over baseline” value ([1]; Example 4, FIG. 5A, 10 mg/kg, test day 41) was about 81%, the “decrease in pain sensitivity, mechanical allodynia test” value (from here on “decrease in pain sensitivity”) ([2]; 2 mg/kg, day 8) was “about 66%” and the “decrease in pain sensitivity” value ([2]; 2 mg/kg, day 15) was about 50%. For the same compound, the “decrease in pain sensitivity” value ([2]; 2 mg/kg, day 22) was about 35%, the “decrease in pain sensitivity” value ([2]; 10 mg/kg, day 8) was “about 68%” and the “decrease in pain sensitivity” value ([2]; 10 mg/kg, day 15) was “about 58%”. The “decrease in pain sensitivity” value ([2]; 10 mg/kg, day 22) was about 60%.
For `O=C(O)c1cc(/N=N/c2ccc(S(=O)(=O)Nc3ccccn3)cc2)ccc1O` [sulfasalazine], the “mean paw withdrawal latency over baseline” value ([1]; 5 mg/kg, test day 7) was “about 80%”, the “mean paw withdrawal latency over baseline” value ([1]; 5 mg/kg, test day 14) was about 83% and the “mean paw withdrawal latency over baseline” value ([1]; 5 mg/kg, test day 21) was about 87%. The “mean paw withdrawal latency over baseline” value ([1]; 50 mg/kg, test day 7) was “about 74%”, the “mean paw withdrawal latency over baseline” value ([1]; 50 mg/kg, test day 14) was about 79% and the “mean paw withdrawal latency over baseline” value ([1]; 50 mg/kg, test day 21) was about 83%. For the same compound, the “sensitivity in mechanical allodynia paradigm compared to controls” value [2] was “decreased sensitivity”.
With Enbrel® the “mean paw withdrawal latency over baseline” value ([1]; 3 mg/kg, test day 7) was “about 60%”, the “mean paw withdrawal latency over baseline” value ([1]; 3 mg/kg, test day 14) was about 63% and the “mean paw withdrawal latency over baseline” value ([1]; 3 mg/kg, test day 21) was about 75%. The “paw withdrawal latency over baseline” value ([1]; Example 2, FIG. 3, positive control, test day 7) was “about 51%”, the “paw withdrawal latency over baseline” value ([1]; Example 2, FIG. 3, positive control, test day 14) was about 63% and the “paw withdrawal latency over baseline” value ([1]; Example 2, FIG. 3, positive control, test day 21) was about 62%. The “paw withdrawal latency over baseline, average” value ([1]; Example 4, FIG. 5A, 3 mg/kg, all three test days) was “about 51%”, the “paw withdrawal latency over baseline” value ([1]; Example 5, FIG. 6, subcutaneously implanted Alzet pump, 1 μg/hour, test day 7) was “about 45%” and the “paw withdrawal latency over baseline” value ([1]; Example 5, FIG. 6, subcutaneously implanted Alzet pump, 1 μg/hour, test day 14) was “about 60%”. For the same compound, the “paw withdrawal latency over baseline” value ([1]; Example 5, FIG. 6, subcutaneously implanted Alzet pump, 1 μg/hour, test day 21) was about 71% and the “sensitivity in mechanical allodynia paradigm compared to controls” value [2] was “decreased sensitivity”.
For `Clc1cccc(Cl)c1N=C1NCCN1` [clonidine], the “increase in paw withdrawal latency over baseline” value (shortened to “increase”) ([1]; Example 4, FIG. 5A, test day 7) was “about 78%”, the “increase” value ([1]; Example 4, FIG. 5A, test day 21) was about 61% and the “increase” value ([1]; Example 4, FIG. 5A, test day 41) was about 60%. For the same compound, the “paw withdrawal latency over baseline” value ([1]; Example 5, FIG. 6, subcutaneously implanted Alzet pump, 0.01 μg/hour, test day 7) was “about 60%”, the “paw withdrawal latency over baseline” value ([1]; Example 5, FIG. 6, subcutaneously implanted Alzet pump, 0.01 μg/hour, test day 14) was about 64% and the “paw withdrawal latency over baseline” value ([1]; Example 5, FIG. 6, subcutaneously implanted Alzet pump, 0.01 μg/hour, test day 21) was about 79%. For the same compound, the “paw withdrawal latency over baseline” value ([1]; Example 5, FIG. 6, subcutaneously implanted Alzet pump, 0.05 μg/hour, test day 7) was “about 68%”, the “paw withdrawal latency over baseline” value ([1]; Example 5, FIG. 6, subcutaneously implanted Alzet pump, 0.05 μg/hour, test day 14) was about 64% and the “paw withdrawal latency over baseline” value ([1]; Example 5, FIG. 6, subcutaneously implanted Alzet pump, 0.05 μg/hour, test day 21) was about 83%. The “paw withdrawal latency over baseline” value ([1]; Example 5, FIG. 6, subcutaneously implanted Alzet pump, 0.25 μg/hour, test day 7) was “about 63%”, the “paw withdrawal latency over baseline” value ([1]; Example 5, FIG. 6, subcutaneously implanted Alzet pump, 0.25 μg/hour, test day 14) was about 70% and the “paw withdrawal latency over baseline” value ([1]; Example 5, FIG. 6, subcutaneously implanted Alzet pump, 0.25 μg/hour, test day 21) was about 82%. For the same compound, the “dose reduction without loss of efficacy” value ([1]; Example 5, local dosing by pump) was 25 fold, the “decrease in pain sensitivity” value ([2]; 0.1 mg/kg, day 8) was “about 58%” and the “decrease in pain sensitivity” value ([2]; 0.1 mg/kg, day 15) was about 20%. The “decrease in pain sensitivity” value ([2]; 0.1 mg/kg, day 22) was about 48% and the “pain sensitivity in the mechanical allodynia test, in words” value ([2]; low dose (0.02 mg/kg), effect not as strong) was “decreased sensitivity”.

— patent US8969397B2, “Systems and methods to treat pain locally” (Warsaw Orthopedic, Inc., priority 2004, dated 2015)
